Test results as given in the supplement of paper PMC4858399.

Experiments:
[1] = tested on: Caenorhabditis elegans N2; experiment: lowest effective concentration for larval growth inhibition (size below effect threshold); higher = less potent; conditions: exposure time 48 h
Method in brief: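 Log-transformed well means of per-worm extinction, read as size on a Biosort, came from 50 C. elegans N2 L1 larvae per 96-well grown 48 h at 20°C in K-medium with killed bacteria, 1% DMSO and 0.5 to 200 µM chemical. The lowest effective concentration is the first dose at which the plate-adjusted mean size is below the threshold and stays below it at every higher dose. The threshold is 5.665.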

[2] = tested on: Caenorhabditis elegans N2; experiment: mean nematode size ln(EXT) after 48 h, plate-adjusted (DMSO control set to 6) (ln(EXT), control-adjusted); higher = larger nematodes / less growth inhibition; conditions: exposure time 48 h
Method in brief: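 In K-medium with killed OP50, 1% DMSO and 0.5–200 µM chemical, synchronised N2 L1 larvae of C. elegans (50 per well) grew for 48 h at 20°C. Extinction was read for every worm on the Biosort, with debris removed by a growth model. Natural-log values averaged per well gave mean size, which was corrected per plate by subtracting the vehicle control mean and adding 6.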

SMILES	lowest effective concentration [1]	mean nematode size ln(EXT) (ln) ([2]; 0.5 µM)	mean nematode size ln(EXT) (ln) ([2]; 1 µM)	mean nematode size ln(EXT) (ln) ([2]; 5 µM)	mean nematode size ln(EXT) (ln) ([2]; 10 µM)	mean nematode size ln(EXT) (ln) ([2]; 50 µM)	mean nematode size ln(EXT) (ln) ([2]; 100 µM)	mean nematode size ln(EXT) (ln) ([2]; 200 µM)
CC(C)CC(C)O (stereo not given) [4-Methyl-2-pentanol]	> 200 µM	6.05	5.96	6.02	5.89	5.97	5.96	5.79
Cc1ccc(N)cc1 [4-Methyl-benzeneamine]	> 200 µM	5.89	5.85	5.89	5.88	5.79	5.85	5.71
Cc1ccc(O)cc1 [4-Methylphenol]	> 200 µM	5.84	5.98	5.92	5.87	5.96	5.8	5.83
Nc1ccc([N+](=O)[O-])cc1 [4-Nitroaniline]	> 200 µM	5.76	5.77	5.73	5.64	5.68	5.69	5.72
O=[N+]([O-])c1ccc(O)cc1 [4-Nitrophenol]	> 200 µM	5.92	5.82	5.87	5.69	5.89	5.8	5.8
Cc1ccc([N+](=O)[O-])cc1 [4-Nitrotoluene]	> 200 µM	5.99	5.92	5.98	5.85	5.94	5.95	5.77
CC(C)(C)c1ccc(O)cc1 [4-tert-Butylphenol]	> 200 µM	5.86	5.91	5.92	5.94	5.91	5.81	5.71
CC1(C)NC(=O)NC1=O [5,5-Dimethylhydantoin]	> 200 µM	5.74	5.99	6.06	5.91	5.97	5.93	5.79
O=C1NC(=O)C(c2ccccc2)(c2ccccc2)N1 [5,5-Diphenylhydantoin]	> 200 µM	5.94	5.99	5.92	5.94	5.91	5.88	5.78
Cc1ccc(N)cc1O [5-Amino-o-cresol]	> 200 µM	5.44	5.57	5.55	5.6	5.74	5.75	5.8
CCC12COCN1COC2 [5-Ethyl-1-aza-3,7-dioxabicyclo[3.3.0]octane]	> 200 µM	5.73	6.05	6.06	5.92	5.96	5.94	5.78
Cc1c(-c2cccnc2)c2ccccc2n1CCCCC(=O)O [5-[2-methyl-3-(pyridin-3-yl)-1H-indol-1-yl]pentanoic acid]	> 200 µM	5.93	5.89	5.78	5.84	5.83	5.87	5.7
CCNc1nc(N)nc(Cl)n1 [6-Deisopropylatrazine]	> 200 µM	6.12	6.17	6.08	6.05	5.95	6	5.94
CCCc1cc(=O)[nH]c(=S)[nH]1 [6-Propyl-2-thiouracil]	> 200 µM	5.8	5.84	5.82	5.91	5.8	5.88	5.74
Nc1nc(=S)c2[nH]cnc2[nH]1 [6-Thioguanine]	> 200 µM	5.81	5.79	5.86	5.8	5.78	5.86	5.72
C#C[C@]1(O)CC[C@H]2[C@@H]3CCc4cc(O)ccc4[C@H]3CC[C@@]21C [17alpha-Ethynylestradiol]	> 200 µM	6	5.96	5.9	5.91	6	5.86	5.92
C[C@](N)(Cc1ccc(O)c(O)c1)C(=O)O [(-)-3-(3,4-Dihydroxyphenyl)-2-methyl-L-alanine sesquihydrate]	> 200 µM	5.88	5.88	5.89	5.89	5.88	5.87	5.85
COP(=O)(NC(C)=O)SC (stereo not given) [Acephate]	> 200 µM	5.69	5.74	5.76	5.69	5.85	5.77	5.99
CC(=O)Nc1ccc(O)cc1 [Acetaminophen]	> 200 µM	6.04	6.05	6.04	6.12	6.09	6.04	5.74
C/C(=N\C#N)N(C)Cc1ccc(Cl)nc1 [Acetamiprid]	> 200 µM	5.78	5.98	6.03	6.03	6.16	6.02	5.96
CCOCN(C(=O)CCl)c1c(C)cccc1CC [Acetochlor]	> 200 µM	6.04	6	6.11	6.25	6.04	6.05	6.15
CC(=O)c1ccccc1 [Acetophenone]	> 200 µM	6	6.01	6.03	6.08	6.16	6.11	5.78
O=C(O)c1cc(Oc2ccc(C(F)(F)F)cc2Cl)ccc1[N+](=O)[O-] [Acifluorfen]	> 200 µM	5.84	5.92	5.76	6.05	6.01	6.24	5.94
C=CC(N)=O [Acrylamide]	200 µM	6	5.68	5.69	5.76	5.89	5.76	5.65
CSC(C)(C)/C=N/O [Aldicarb oxime]	> 200 µM	5.88	5.88	5.75	5.85	5.94	5.94	5.77
CNC(=O)O/N=C/C(C)(C)SC [Aldicarb]	> 200 µM	5.86	5.88	5.74	5.74	5.55	5.25	5.75
COc1cc(S(=O)(=O)O)c(C)cc1N=Nc1c(O)ccc2cc(S(=O)(=O)O)ccc12 [Allura red]	> 200 µM	5.71	5.75	5.76	5.79	5.72	5.67	5.86
CCNc1nc(NC(C)C)nc(SC)n1 [Ametryn]	> 200 µM	6.09	6.82	6.12	6.27	6.45	6.38	5.72

SMILES	lowest effective concentration [1]	mean nematode size ln(EXT) (ln) ([2]; 0.5 µM)	mean nematode size ln(EXT) (ln) ([2]; 1 µM)	mean nematode size ln(EXT) (ln) ([2]; 5 µM)	mean nematode size ln(EXT) (ln) ([2]; 10 µM)	mean nematode size ln(EXT) (ln) ([2]; 50 µM)	mean nematode size ln(EXT) (ln) ([2]; 100 µM)	mean nematode size ln(EXT) (ln) ([2]; 200 µM)
CC(=O)Oc1ccccc1C(=O)O [Aspirin]	> 200 µM	5.74	5.85	5.81	6.1	5.89	5.89	5.71
COC(=O)NS(=O)(=O)c1ccc(N)cc1 [Asulam]	> 200 µM	6.06	5.99	5.51	6.04	5.49	5.99	5.83
CCNc1nc(Cl)nc(NC(C)C)n1 [Atrazine]	> 200 µM	5.54	5.72	5.73	5.07	6.06	6.06	5.94
CCCCC(CC)COC(=O)CCCCCCCC(=O)OCC(CC)CCCC (stereo not given) [Azelaic acid di(2-ethylhexyl) ester]	> 200 µM	5.73	5.62	5.69	5.67	5.23	5.44	5.67
ClC(Cl)c1ccccc1 [Benzal chloride]	> 200 µM	5.81	5.83	5.86	5.78	5.85	5.89	5.68
Nc1ccc(-c2ccc(N)cc2)cc1 [Benzidine]	> 200 µM	6.06	6.02	5.91	5.98	5.81	5.75	5.97
O=C(O)c1ccccc1 [Benzoic acid]	> 200 µM	5.63	5.77	5.73	5.77	5.72	5.73	6.04
OCc1ccccc1 [Benzyl alcohol]	> 200 µM	5.85	5.94	5.9	5.84	5.95	5.93	5.81
O=C(O)c1ccccc1C(=O)OCc1ccccc1 [Benzyl hydrogen phthalate]	> 200 µM	5.72	5.73	5.79	5.84	5.73	5.67	5.74
CCCCC(CC)COC(=O)CCCCC(=O)OCc1ccccc1 (stereo not given) [Benzyloctyl adipate (BOA)]	> 200 µM	5.99	5.97	6.03	6.02	5.92	5.77	5.89
COc1ccc(-c2ccccc2)cc1NNC(=O)OC(C)C [Bifenazate]	> 200 µM	5.62	5.82	5.8	5.93	5.25	5.68	5.87
ClCCOCCCl [Bis(2-chloroethyl)ether]	> 200 µM	5.78	6.14	5.94	5.96	5.8	5.86	5.72
COCCOCCOC [Bis(2-methoxyethyl) ether]	> 200 µM	5.88	5.82	5.78	5.69	5.85	5.83	5.8
OB(O)O [Boric acid]	> 200 µM	6.06	6.07	6.08	6.13	6.14	6.18	5.95
CCC(C)n1c(=O)[nH]c(C)c(Br)c1=O (stereo not given) [Bromacil]	> 200 µM	6.06	6.23	6.18	6.3	6.1	6.23	5.81
N#Cc1cc(Br)c(O)c(Br)c1 [Bromoxynil]	> 200 µM	5.85	5.95	5.86	5.91	5.84	5.95	5.67
CS(=O)(=O)OCCCCOS(C)(=O)=O [Busulfan]	> 200 µM	5.98	5.93	5.94	5.95	5.98	5.94	5.8
C=CCOC(=O)C(C)(C)OC(=O)c1cc(-n2c(=O)cc(C(F)(F)F)n(C)c2=O)ccc1Cl [Butafenacil]	> 200 µM	5.9	5.89	5.87	5.88	5.84	5.92	5.94
CCOC(=O)CCC(=O)OCC [Butanedioic acid, diethyl ester]	> 200 µM	5.83	5.91	5.87	5.89	5.9	5.98	5.75
CCCC(=O)O [Butanoic acid]	> 200 µM	5.86	5.86	5.86	5.86	5.94	6	5.71
CCCCOC(=O)c1ccccc1C(=O)OCc1ccccc1 [Butyl benzyl phthalate]	> 200 µM	5.93	5.94	6.01	5.98	6.17	5.76	5.67
CCCCc1ccccc1 [Butylbenzene]	> 200 µM	5.65	5.67	5.69	5.67	5.53	5.6	5.75
Cn1c(=O)c2c(ncn2C)n(C)c1=O [Caffeine]	> 200 µM	5.87	5.94	5.87	5.91	5.94	5.85	5.75
O=C1CCCCCN1 [Caprolactam]	> 200 µM	5.8	5.81	5.84	5.87	5.88	5.55	5.68
NC(=O)N1c2ccccc2C=Cc2ccccc21 [Carbamazepine]	> 200 µM	5.86	5.85	5.88	5.83	5.88	5.85	5.67
CNC(=O)Oc1cccc2ccccc12 [Carbaryl]	> 200 µM	5.78	5.79	5.6	5.71	5.83	5.72	5.67
CC1=C(C(=O)Nc2ccccc2)SCCO1 [Carboxin]	> 200 µM	5.77	5.9	5.83	5.85	5.84	5.62	5.9
